In patent publication US10344330B2, “Glatiramer acetate response biomarker mRNA potency assay” (Mylan Inc., priority 2013, dated 2019):

System: mouse IL-5 mRNA in primary LN cells
Test: Validation: mouse IL-5 mRNA by real-time PCR in LN cells of GA-immunized SJL/J mice (Example IV)
Type: cell-based
Details: for induction of IL-5 mRNA: 20 μg/mL GA, 6 hours; for IL-5 mRNA Fold Change: normalized to GAPDH
Experimental: Three experiments were conducted using one batch of GA (Mylan GMA). The primary LN cells were stimulated by incubation with 6 concentrations (0.3 to 20 μg/mL) of the GA for 6 hours at 37° C. Total RNA was isolated from LN cells stimulated with GA or controls. cDNA was synthesized from the RNA and the mRNA levels of seven mouse cytokines, IL-2, IL-4, IL-5, IL-10, IL-13, interferon (IFN)-γ and tumor necrosis factor (TNF)-α, were quantitatively measured by a real-time PCR method.
Female SJL/J mice at 8-9 weeks of age were immunized by injection into four footpads using a 1 mL syringe with a 27-G, ½-inch needle. Each mouse received a total injection volume of 0.1 mL of GMA emulsified in CFA (about 10 μL into each of the front footpads and 40 μL into each of the hind footpads). Animals were immunized on Day 0. After injection, animals were placed back in their cages and housed ≤6 animals per cage.
Immunized animals were sacrificed by cervical dislocation on Day 10 following immunization. […] After centrifugation at about 200×g for 10 minutes at 4° C., the cell pellet was re-suspended in 40 mL of DCCM-1 medium for cell counting. A Trypan blue exclusion method was used to determine the cell density of viable cells in the suspension. After cell counting, the LN cells were suspended in enriched DCCM-1 medium at density of 7.5×10^6 cells/mL. LN cells (0.12 mL) were plated into each well of 96-well tissue culture plates.
Dilutions of GA (Mylan GMA) were prepared using enriched DCCM-1 medium as the diluent. GA dilutions (0.12 mL) were added in the assigned wells of 96-well tissue culture plates. The same volume of LN cells (0.12 mL) isolated from immunized animals was added to the assigned wells. A positive control and a negative control were always performed in the same assay by treating LN cells with 2.5 μg/mL ConA and 10 μg/mL MBP, respectively. The LN cells with mock stimulation protocols (enriched DCCM-1 medium) were used to monitor the background mRNA level of a cytokine. The plates were incubated at 37° C. in a humidified 5% CO2 incubator for 6 hr.
At the end of incubation time, culture medium from stimulated cells was removed by aspiration and the cells were lysed using Qiagen or Promega lysis buffer. The lysate was transferred to an RNeasy Mini column (Qiagen) or wells of the SV 96 Binding Plate (Promega) for RNA isolation and cDNA synthesis. All tested samples were run in triplicate.
The SV 96 Total RNA Isolation System (Promega; Cat. No. Z3505) was used for total RNA isolation. Assay procedures were carried out according to each manufacturer's protocol. RNA samples were stored at −70° C. until use. […] The assay procedure was carried out according to the manufacturer's protocol.
The plate was centrifuged at 2000 rpm for 2 minutes at 4° C. to spin down the contents and eliminate air bubbles. Samples were prepared and run in a 96-well plate using a Life Technologies Real-Time PCR system (previously Applied Biosystems; Model No. 7500) according to the manufacturer's recommendation. The mix for the reference gene was prepared in the same way using the reference gene primer.
A relative quantitation method was used to analyze changes in mIL-2, mIL-4, mIL-5, mIL-10, mIL-13, mIFN-γ and TNF-α expression in GA treated samples relative to the untreated control (Enriched DCCM-1 treated) samples using the following program:
Levels of mouse cytokine amplicons were normalized to an internal probe level (GAPDH) from the same samples. The following equations were used to calculate the relative increase in response to GA stimulation compared to the control sample (Enriched DCCM1 sample): […]

L-glutamic acid polymer with L-alanine, L-lysine and L-tyrosine, acetate (salt) [GA]
induction of IL-5 mRNA (SJL/J, Exp 1): 5.2 fold | induction of IL-5 mRNA (SJL/J, Exp 2): 5.3 fold | induction of IL-5 mRNA (SJL/J, Exp 3): 15.2 fold | induction of IL-5 mRNA (in words) (SJL/J, different concentrations of GA vs unstimulated LN cells): moderate induction

Concanavalin A [ConA, reference compound]
IL-5 mRNA Fold Change (Experiment 1, 2.5 μg/mL): 22.4 fold | IL-5 mRNA Fold Change (Experiment 2, 2.5 μg/mL): 11.3 fold | IL-5 mRNA Fold Change (Experiment 3, 2.5 μg/mL): 31.0 fold

B1: MBP: myelin basic protein, a negative control (protein, UniProt P02686 1-304, looked up)
Myelin basic protein: MGNHAGKRELNAEKASTNSETNRGESEKKRNLGELSRTTSEDNEVFGEADANQNNGTSSQDTAVTDSKRTADPKNAWQDAHPADPGSRPHLIRLFSRDAPGREDNTFKDRPSESDELQTIQEDSAATSESLDVMASQKRPSQRHGSKYLATASTMDHARHGFLPRHRDTGILDSIGRFFGGDRGAPKRGSGKDSHHPARTAHYGSLPQKSHGRTQDENPVVHFFKNIVTPRTPPPSQGKGRGLSLSRFSWGAEGQRPGFGYGGRASDYKSAHKGFKGVDAQGTLSKIFKLGGRDSRSGSPMARR
IL-5 mRNA Fold Change (Experiment 1, 10 μg/mL): 0.8 fold | IL-5 mRNA Fold Change (Experiment 2, 10 μg/mL): 0.8 fold | IL-5 mRNA Fold Change (Experiment 3, 10 μg/mL): 2.6 fold
